Test results taken from patent US11717508B2, “Compounds, compositions, and methods for inhibiting bacterial growth” (priority 2016, dated 2023).
Like-named read-outs stand apart in the source and are kept apart here.

Tested on: DosRST regulon
Assay type: cell-based
Settings: for WT DMSO/WT HC102A Fold change / log2 Fold change: upregulated
[1] = Rv2626c, WT Mtb treated with HC102A compared to DMSO
[2] = Rv2627c, WT Mtb treated with HC102A compared to DMSO
[3] = Rv2628, WT Mtb treated with HC102A compared to DMSO
[4] = Rv2629, WT Mtb treated with HC102A compared to DMSO
[5] = Rv2630, WT Mtb treated with HC102A compared to DMSO
[6] = Rv2631, WT Mtb treated with HC102A compared to DMSO
[7] = Rv3083, WT Mtb treated with HC102A compared to DMSO
[8] = Rv3084 lipR, WT Mtb treated with HC102A compared to DMSO
[9] = Rv3085, WT Mtb treated with HC102A compared to DMSO
[10] = Rv3127, WT Mtb treated with HC102A compared to DMSO
[11] = Rv3130c, WT Mtb treated with HC102A compared to DMSO
[12] = Rv3131, WT Mtb treated with HC102A compared to DMSO
[13] = Rv3132c, WT Mtb treated with HC102A compared to DMSO
[14] = Rv3133c, WT Mtb treated with HC102A compared to DMSO
[15] = Rv3134c, WT Mtb treated with HC102A compared to DMSO
[16] = Rv3839, WT Mtb treated with HC102A compared to DMSO
[17] = WT Mtb treated with HC102A compared to DMSO
[18] = WT Mtb treated with HC102A, replicate 1
[19] = WT Mtb treated with HC102A, replicate 2

Structure (SMILES): C[C@@H]1CC(C)(C)C[C@]2(C1)NC(=O)NC2=O (racemic) [HC102A, 7,7,9-trimethyl-1,3-diazaspiro[4.5]decane-2,4-dione]
- log2 Fold change, gene MT2700 (Rv2625c, WT Mtb treated with HC102A compared to DMSO): −5.149
- Counts per million (CPM) WT_HC102A1, gene MT2700 (Rv2625c, WT Mtb treated with HC102A, replicate 1): 146.1 CPM
- Counts per million (CPM) WT_HC102A2, gene MT2700 (Rv2625c, WT Mtb treated with HC102A, replicate 2): 111.9 CPM
- Fold change, gene MT2701 [1]: 0.04398
- log2 Fold change, gene MT2701 [1]: −4.507
- Counts per million (CPM) WT_HC102A1, gene MT2701 (Rv2626c, WT Mtb treated with HC102A, replicate 1): 447.5 CPM
- Counts per million (CPM) WT_HC102A2, gene MT2701 (Rv2626c, WT Mtb treated with HC102A, replicate 2): 554.5 CPM
- Fold change, gene MT2702 [2]: 0.01981
- log2 Fold change, gene MT2702 [2]: −5.658
- Counts per million (CPM) WT_HC102A1, gene MT2702 (Rv2627c, WT Mtb treated with HC102A, replicate 1): 101.3 CPM
- Counts per million (CPM) WT_HC102A2, gene MT2702 (Rv2627c, WT Mtb treated with HC102A, replicate 2): 156.7 CPM
- Fold change, gene MT2703 [3]: 0.03499
- log2 Fold change, gene MT2703 [3]: −4.837
- Counts per million (CPM) WT_HC102A1, gene MT2703 (Rv2628, WT Mtb treated with HC102A, replicate 1): 20.64 CPM
- Counts per million (CPM) WT_HC102A2, gene MT2703 (Rv2628, WT Mtb treated with HC102A, replicate 2): 33.42 CPM
- Fold change, gene MT2704 [4]: 0.09873
- log2 Fold change, gene MT2704 [4]: −3.34
- Counts per million (CPM) WT_HC102A1, gene MT2704 (Rv2629, WT Mtb treated with HC102A, replicate 1): 540.6 CPM
- Counts per million (CPM) WT_HC102A2, gene MT2704 (Rv2629, WT Mtb treated with HC102A, replicate 2): 660.1 CPM
- Fold change, gene MT2705 [5]: 0.0994
- log2 Fold change, gene MT2705 [5]: −3.331
- Counts per million (CPM) WT_HC102A1, gene MT2705 (Rv2630, WT Mtb treated with HC102A, replicate 1): 71.28 CPM
- Counts per million (CPM) WT_HC102A2, gene MT2705 (Rv2630, WT Mtb treated with HC102A, replicate 2): 56.05 CPM
- Fold change, gene MT2707 [6]: 0.1179
- log2 Fold change, gene MT2707 [6]: −3.085
- Counts per million (CPM) WT_HC102A1, gene MT2707 (Rv2631, WT Mtb treated with HC102A, replicate 1): 110.9 CPM
- Counts per million (CPM) WT_HC102A2, gene MT2707 (Rv2631, WT Mtb treated with HC102A, replicate 2): 72.59 CPM
- Fold change, gene MT3168 [7]: 0.2851
- log2 Fold change, gene MT3168 [7]: −1.81
- Counts per million (CPM) WT_HC102A1, gene MT3168 (Rv3083, WT Mtb treated with HC102A, replicate 1): 100.3 CPM
- Counts per million (CPM) WT_HC102A2, gene MT3168 (Rv3083, WT Mtb treated with HC102A, replicate 2): 66.84 CPM
- Fold change, gene MT3169 [8]: 0.2724
- log2 Fold change, gene MT3169 [8]: −1.876
- Counts per million (CPM) WT_HC102A1, gene MT3169 (Rv3084 lipR, WT Mtb treated with HC102A, replicate 1): 16.74 CPM
- Counts per million (CPM) WT_HC102A2, gene MT3169 (Rv3084 lipR, WT Mtb treated with HC102A, replicate 2): 9.205 CPM
- Fold change, gene MT3170 [9]: 0.3224
- log2 Fold change, gene MT3170 [9]: −1.633
- Counts per million (CPM) WT_HC102A1, gene MT3170 (Rv3085, WT Mtb treated with HC102A, replicate 1): 11.79 CPM
- Counts per million (CPM) WT_HC102A2, gene MT3170 (Rv3085, WT Mtb treated with HC102A, replicate 2): 8.619 CPM
- Fold change, gene MT3212 [10]: 0.0633
- log2 Fold change, gene MT3212 [10]: −3.982
- Counts per million (CPM) WT_HC102A1, gene MT3212 (Rv3127, WT Mtb treated with HC102A, replicate 1): 690.1 CPM
- Counts per million (CPM) WT_HC102A2, gene MT3212 (Rv3127, WT Mtb treated with HC102A, replicate 2): 898.2 CPM
- Fold change, gene MT3216 [11]: 0.05498
- log2 Fold change, gene MT3216 [11]: −4.185
- Counts per million (CPM) WT_HC102A1, gene MT3216 (Rv3130c, WT Mtb treated with HC102A, replicate 1): 1,395.93 CPM
- Counts per million (CPM) WT_HC102A2, gene MT3216 (Rv3130c, WT Mtb treated with HC102A, replicate 2): 1,787.99 CPM
- Fold change, gene MT3217 [12]: 0.03013
- log2 Fold change, gene MT3217 [12]: −5.053
- Counts per million (CPM) WT_HC102A1, gene MT3217 (Rv3131, WT Mtb treated with HC102A, replicate 1): 415.6 CPM
- Counts per million (CPM) WT_HC102A2, gene MT3217 (Rv3131, WT Mtb treated with HC102A, replicate 2): 421.7 CPM
- Fold change, gene MT3218 [13]: 0.0994
- log2 Fold change, gene MT3218 [13]: −3.331
- Counts per million (CPM) WT_HC102A1, gene MT3218 (Rv3132c, WT Mtb treated with HC102A, replicate 1): 439 CPM
- Counts per million (CPM) WT_HC102A2, gene MT3218 (Rv3132c, WT Mtb treated with HC102A, replicate 2): 364.8 CPM
- Fold change, gene MT3219 [14]: 0.07283
- log2 Fold change, gene MT3219 [14]: −3.779
- Counts per million (CPM) WT_HC102A1, gene MT3219 (Rv3133c, WT Mtb treated with HC102A, replicate 1): 233.8 CPM
- Counts per million (CPM) WT_HC102A2, gene MT3219 (Rv3133c, WT Mtb treated with HC102A, replicate 2): 174 CPM
- Fold change, gene MT3220 [15]: 0.04505
- log2 Fold change, gene MT3220 [15]: −4.472
- Counts per million (CPM) WT_HC102A1, gene MT3220 (Rv3134c, WT Mtb treated with HC102A, replicate 1): 264.6 CPM
- Counts per million (CPM) WT_HC102A2, gene MT3220 (Rv3134c, WT Mtb treated with HC102A, replicate 2): 171.8 CPM
- Fold change, gene MT3947 [16]: 0.2314
- log2 Fold change, gene MT3947 [16]: −2.111
- Counts per million (CPM) WT_HC102A1, gene MT3947 (Rv3839, WT Mtb treated with HC102A, replicate 1): 25.93 CPM
- Counts per million (CPM) WT_HC102A2, gene MT3947 (Rv3839, WT Mtb treated with HC102A, replicate 2): 7.681 CPM
- Fold change, gene MT0598 [17]: 0.2421
- Fold change, gene MT0600 [17]: 0.1586
- Fold change, gene MT1096 [17]: 0.3436
- Fold change, gene MT1385 [17]: 0.3712
- Fold change, gene MT1775 [17]: 0.2046
- Fold change, gene MT1777 [17]: 0.1265
- Fold change, gene MT2088 [17]: 0.0678
- Fold change, gene MT2090 [17]: 0.1133
- Fold change, gene MT3209 [17]: 0.4
- Fold change, gene MT3210 [17]: 0.04949
- log2 Fold change, gene MT0598 [17]: −2.046
- log2 Fold change, gene MT0600 [17]: −2.656
- log2 Fold change, gene MT1096 [17]: −1.541
- log2 Fold change, gene MT1385 [17]: −1.43
- log2 Fold change, gene MT1775 [17]: −2.289
- log2 Fold change, gene MT1777 [17]: −2.983
- log2 Fold change, gene MT2088 [17]: −3.883
- log2 Fold change, gene MT2090 [17]: −3.141
- log2 Fold change, gene MT3209 [17]: −1.322
- log2 Fold change, gene MT3210 [17]: −4.337
- Counts per million (CPM) WT_HC102A1, gene MT0598 [18]: 57.71 CPM
- Counts per million (CPM) WT_HC102A1, gene MT0600 [18]: 129.6 CPM
- Counts per million (CPM) WT_HC102A1, gene MT1096 [18]: 9.103 CPM
- Counts per million (CPM) WT_HC102A1, gene MT1385 [18]: 56.65 CPM
- Counts per million (CPM) WT_HC102A1, gene MT1775 [18]: 172.1 CPM
- Counts per million (CPM) WT_HC102A1, gene MT1777 [18]: 11.46 CPM
- Counts per million (CPM) WT_HC102A1, gene MT2088 [18]: 254.1 CPM
- Counts per million (CPM) WT_HC102A1, gene MT2090 [18]: 3,874.46 CPM
- Counts per million (CPM) WT_HC102A1, gene MT3209 [18]: 5.689 CPM
- Counts per million (CPM) WT_HC102A1, gene MT3210 [18]: 0.5689 CPM
- Counts per million (CPM) WT_HC102A2, gene MT0598 [19]: 66.55 CPM
- Counts per million (CPM) WT_HC102A2, gene MT0600 [19]: 211.3 CPM
- Counts per million (CPM) WT_HC102A2, gene MT1096 [19]: 3.811 CPM
- Counts per million (CPM) WT_HC102A2, gene MT1385 [19]: 35.06 CPM
- Counts per million (CPM) WT_HC102A2, gene MT1775 [19]: 61.8 CPM
- Counts per million (CPM) WT_HC102A2, gene MT1777 [19]: 24.1 CPM
- Counts per million (CPM) WT_HC102A2, gene MT2088 [19]: 225.6 CPM
- Counts per million (CPM) WT_HC102A2, gene MT2090 [19]: 5,782.55 CPM
- Counts per million (CPM) WT_HC102A2, gene MT3209 [19]: 5.394 CPM
- Counts per million (CPM) WT_HC102A2, gene MT3210 [19]: 0.1173 CPM
- Counts per million (CPM) WT_HC102A1 (gene MT3514 (Rv3406), replicate 1): 494.4 CPM
- Counts per million (CPM) WT_HC102A2 (gene MT3514 (Rv3406), replicate 2): 168 CPM
- WT DMSO/WT HC102A Fold change (gene MT3514 (Rv3406)): 6.242
- log2 Fold change (gene MT3514 (Rv3406)): 2.642
- Counts per million (CPM) WT_HC102A1 (gene MT3515 (Rv3407), replicate 1): 191.1 CPM
- Counts per million (CPM) WT_HC102A2 (gene MT3515 (Rv3407), replicate 2): 103.1 CPM
- WT DMSO/WT HC102A Fold change (gene MT3515 (Rv3407)): 2.831
- log2 Fold change (gene MT3515 (Rv3407)): 1.501
